Assay results published in patent publication US20130096105A1, “ArylSulfonamide Based Matrix Metalloprotease Inhibitors” (NOVARTIS AG, priority 2008, published 2013).

What was measured:
Gelatinase (MMP-2) = molecular target: T1, Gelatinase (MMP-2) (Homo sapiens, UniProt P08253); assay: Gelatinase (MMP-2) inhibitory activity, fluorogenic peptide substrate cleavage; format: biochemical; conditions: read-out: MMP02 IC50
T1 sequence (P08253 110-660): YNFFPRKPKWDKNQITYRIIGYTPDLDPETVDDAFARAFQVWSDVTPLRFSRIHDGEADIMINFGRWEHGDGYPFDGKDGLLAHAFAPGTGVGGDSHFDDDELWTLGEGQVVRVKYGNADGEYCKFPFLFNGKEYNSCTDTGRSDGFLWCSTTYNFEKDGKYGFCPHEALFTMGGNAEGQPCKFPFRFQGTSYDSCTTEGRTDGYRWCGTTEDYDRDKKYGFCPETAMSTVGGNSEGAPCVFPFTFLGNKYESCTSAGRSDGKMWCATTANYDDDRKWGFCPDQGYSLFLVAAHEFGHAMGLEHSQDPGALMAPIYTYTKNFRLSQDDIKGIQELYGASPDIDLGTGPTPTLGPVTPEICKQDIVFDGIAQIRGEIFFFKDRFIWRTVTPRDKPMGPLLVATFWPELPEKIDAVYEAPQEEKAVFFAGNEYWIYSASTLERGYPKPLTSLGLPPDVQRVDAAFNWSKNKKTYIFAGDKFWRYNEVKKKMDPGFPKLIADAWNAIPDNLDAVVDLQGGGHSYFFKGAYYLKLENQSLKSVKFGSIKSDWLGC
Procedure: (§1) Gelatinase (MMP-2) inhibitory activities can be determined as follows: Stock solutions of substrate (MCA-Lys-Pro-Leu-Gly-Leu-Dpa-Ala-Arg-NH2) are prepared in DMSO at a concentration of 1.4 mM. Stock solutions of inhibitors (0.03 μM-3 mM) are also prepared in DMSO. The inhibitors are diluted into the assay solutions, and the controls use an equal volume of DMSO so that the final DMSO concentration from the inhibitor and substrate dilutions in all assays is 1.0%. Assays are performed in an assay buffer (100 mM sodium chloride, 10 μM ZnCl. Sub 2, 10 mM CaCl2, 100 mM Tris-Cl pH7.5, 0.05% Brij-35), containing 1.0% DMSO from the substrate and inhibitor additions. The substrate concentration used in the assays is 5 μM. The assays are carried out at 20-25° C. The fluorescence changes, as a result of substrate cleavage, are monitored using an excitation wavelength of 325 nm and an emission wavelength of 405 nm. The reaction mixtures are added in duplicate into appropriate wells of a 384-well assay plate. The reaction mixtures are preincubated with the inhibitors for 60 minutes The reactions are started by the addition of MMP substrate, and the fluorescence intensity changes are measured after 60 minutes The apparent enzyme activity in the presence of an inhibitor is then compared with that in the absence of any inhibitor to determine the inhibition effect of the inhibitor. These techniques are within the knowledge of one skilled in the art. The inhibition results are expressed as the inhibitor concentrations required to effect 50% inhibition (IC50) of the enzyme activity, as compared with the control (non-inhibited) reactions.

Collagenase-3 (MMP-13) = Collagenase-3 (MMP-13) (Homo sapiens, UniProt P45452); assay: Collagenase-3 (MMP-13) inhibitory activity, fluorogenic peptide substrate cleavage; format: biochemical; conditions: read-out: MMP13 IC50
Procedure: as §1
Collagenase-3 (MMP-13) inhibitory activity is determined as described above. Recombinant pro-collagenase-3 is activated with 1 mM APMA, and stored in the assay buffer after extensive dialysis in the assay buffer.

Row | Compound | IC50 (Gelatinase (MMP-2)) | IC50 (Collagenase-3 (MMP-13))
1 | 2-Chloro-5-(3-hydroxy-4-methoxy-benzoyl)-benzenesulfonamide [Example 56] | > 30 µM | 26.7 µM
2 | 2-Chloro-5-(4-cyclopropyl-benzoyl)-benzenesulfonamide [Example 27] | 7.46 µM | 9.64 µM
3 | 2-Chloro-5-(4-pyridin-4-yl-benzoyl)-benzenesulfonamide [Example 42] | 0.51 µM | 1.5 µM
4 | 2-Chloro-5-(4-thiophen-2-yl-benzoyl)-benzenesulfonamide [Example 39] | 13.3 µM | 9.06 µM
5 | COc1ccc(C(=O)c2ccc(F)c(S(N)(=O)=O)c2)cc1 [Example 2, 2-Fluoro-5-(4-methoxy-benzoyl)-benzenesulfonamide] | 2.41 µM | 1.59 µM
6 | COc1ccc(C(=O)c2cc(F)c(F)c(S(N)(=O)=O)c2)cc1 [Example 4, 2,3-Difluoro-5-(4-methoxy-benzoyl)-benzenesulfonamide] | 4.68 µM | 5.73 µM
7 | COc1ccc(C(=O)c2ccc(C)c(S(N)(=O)=O)c2)cc1 [Example 6, 5-(4-Methoxy-benzoyl)-2-methyl-benzenesulfonamide] | 2.78 µM | 4.51 µM
8 | COc1ccc(C(=O)c2ccc([S+](C)[O-])c(S(N)(=O)=O)c2)cc1 (stereo not drawn) [Example 8, 2-Methanesulfinyl-5-(4-methoxy-benzoyl)-benzenesulfonamide] | 4.48 µM | 10.7 µM
9 | COc1ccc(C(=O)c2ccc(S(C)(=O)=O)c(S(N)(=O)=O)c2)cc1 [Example 9, 2-Methanesulfonyl-5-(4-methoxy-benzoyl)-benzenesulfonamide] | 2.93 µM | 11.3 µM
10 | Cc1cc(-c2c[nH]c3cc(C(=O)c4cccc(S(N)(=O)=O)c4)ccc23)ccn1 [Example 10, 3-[3-(2-Methyl-pyridin-4-yl)-1H-indole-6-carbonyl]-benzenesulfonamide] | 3.4 µM | 0.03 µM
11 | COc1ccc(C(=O)c2ccc(Cl)c(S(=O)(=O)NCCc3ccccc3)c2)cc1 [Example 12, 2-Chloro-5-(4-methoxy-benzoyl)-N-phenethyl-benzenesulfonamide] | 9.13 µM | 3.04 µM
12 | CC(C)COc1ccc(C(=O)c2ccc(Cl)c(S(N)(=O)=O)c2)cc1 [Example 17, 2-Chloro-5-(4-isobutoxy-benzoyl)-benzenesulfonamide] | 2.3 µM | 3.71 µM
13 | CC(C)CCOc1ccc(C(=O)c2ccc(Cl)c(S(N)(=O)=O)c2)cc1 [Example 18, 2-Chloro-5-[4-(3-methyl-butoxy)-benzoyl]-benzenesulfonamide] | 0.7 µM | 0.6 µM
14 | NS(=O)(=O)c1cc(C(=O)c2ccc(Br)cc2)ccc1Cl [Example 23, 5-(4-Bromo-benzoyl)-2-chloro-benzenesulfonamide] | 4.15 µM | 0.95 µM
15 | Cc1cccc(C(=O)c2ccc(Cl)c(S(N)(=O)=O)c2)c1 [Example 24, 2-Chloro-5-(3-methyl-benzoyl)-benzenesulfonamide] | 9.16 µM | 2.1 µM
16 | CC(C)(C)c1ccc(C(=O)c2ccc(Cl)c(S(N)(=O)=O)c2)cc1 [Example 26, 5-(4-tert-Butyl-benzoyl)-2-chloro-benzenesulfonamide] | 17.2 µM | 10.5 µM
17 | C[Si](C)(C)C#Cc1ccc(C(=O)c2ccc(Cl)c(S(N)(=O)=O)c2)cc1 [Example 30, 2-Chloro-5-(4-trimethyl-silanylethynyl-benzoyl)-benzenesulfonamide] | 1.23 µM | 1.69 µM

Next, values leading:

Row | IC50 (Gelatinase (MMP-2)) | IC50 (Collagenase-3 (MMP-13)) | Compound
18 | 1.06 µM | 1.39 µM | COc1ccc(C(=O)c2ccc([N+](=O)[O-])c(S(N)(=O)=O)c2)cc1 [Example 5, 5-(4-Methoxy-benzoyl)-2-nitro-benzenesulfonamide]
19 | 2.36 µM | 3.72 µM | COc1ccc(C(=O)c2ccc(SC)c(S(N)(=O)=O)c2)cc1 [Example 7, 5-(4-Methoxy-benzoyl)-2-methylsulfanyl-benzenesulfonamide]
20 | 3.95 µM | 0.075 µM | COCCCc1cc(-c2c[nH]c3cc(C(=O)c4cccc(S(N)(=O)=O)c4)ccc23)ccn1 [Example 11, 3-{3-[2-(3-Methoxy-propyl)-pyridin-4-yl]-1H-indole-6-carbonyl}-benzenesulfonamide]
21 | 8.8 µM | 6.9 µM | COc1ccc(C(=O)c2ccc(Cl)c(S(=O)(=O)NCCc3ccc(F)cc3)c2)cc1 [Example 13, 2-Chloro-N-[2-(4-fluoro-phenyl)-ethyl]-5(4-methoxy-benzoyl)-benzenesulfonamide]
22 | 0.8 µM | 0.01 µM | NS(=O)(=O)c1cccc(C(=O)c2ccc3c(-c4ccnc(CCCN5CCOCC5)c4)c[nH]c3c2)c1 [Example 14, 3-{3-[2-(3-Morpholin-4-yl-propyl)-pyridin-4-yl]-1H-indole-6-carbonyl}-benzenesulfonamide]
23 | 5.16 µM | 10 µM | NS(=O)(=O)c1cc(C(=O)c2ccc(O)cc2)ccc1Cl [Example 15, 2-Chloro-5-(4-hydroxy-benzoyl)-benzenesulfonamide]
24 | 1.58 µM | 1.22 µM | NS(=O)(=O)c1cc(C(=O)c2ccc(OCCCc3ccccc3)cc2)ccc1Cl [Example 19, 2-Chloro-5-[4-(3-phenyl-propoxy)-benzoyl]-benzenesulfonamide]
25 | 11 µM | 13.6 µM | CCCCCOc1ccc(C(=O)c2ccc(Cl)c(S(N)(=O)=O)c2)cc1 [Example 20, 2-Chloro-5-(4-pentyloxy-benzoyl)-benzenesulfonamide]
26 | 4.73 µM | 0.86 µM | CCCCCCOc1ccc(C(=O)c2ccc(Cl)c(S(N)(=O)=O)c2)cc1 [Example 21, 2-Chloro-5-(4-hexyloxy-benzoyl)-benzenesulfonamide]
27 | 14 µM | 2.05 µM | NS(=O)(=O)c1cc(C(=O)c2ccc(Br)cc2)ccc1Cl [Example 22, 5-(4-Bromo-benzoyl)-2-chloro-benzenesulfonamide]
28 | 2.17 µM | 5.3 µM | NS(=O)(=O)c1cc(C(=O)c2ccc(OC(F)(F)F)cc2)ccc1Cl [Example 25, 2-Chloro-5-(4-trifluoromethoxy-benzoyl)-benzenesulfonamide]
29 | 4.26 µM | 4.49 µM | NS(=O)(=O)c1cc(C(=O)c2ccc(C3CCCC3)cc2)ccc1Cl [Example 28, 2-Chloro-5-(4-cyclopentyl-benzoyl)-benzenesulfonamide]
30 | 13.3 µM | 11.3 µM | NS(=O)(=O)c1cc(C(=O)c2ccc(C3CCCCC3)cc2)ccc1Cl [Example 29, 2-Chloro-5-(4-cyclohexyl-benzoyl)-benzenesulfonamide]
31 | > 30 µM | – | CCc1nn(Cc2ccccc2)c2cc(C(=O)c3ccc(Cl)c(S(N)(=O)=O)c3)ccc12 [Example 111, 5-(1-Benzyl-3-ethyl-1H-indazole-6-carbonyl)-2-chloro-benzenesulfonamide]
32 | – | 0.129 µM | NS(=O)(=O)c1cc(C(=O)c2ccc3c(CCC4CCCC4)n[nH]c3c2)ccc1Cl [Example 112, 2-Chloro-5-[3-(2-cyclopentyl-ethyl)-1H-indazole-6-carbonyl]-benzenesulfonamide]
33 | – | 1.6 µM | NS(=O)(=O)c1cc(C(=O)c2ccc3c(-c4ccsc4)c[nH]c3c2)ccc1Cl [Example 127, 2-Chloro-5-(3-thiophen-3-yl-1H-indole-6-carbonyl)-benzenesulfonamide]
